In patent US9187472B2 (AbbVie Inc., priority 2012, dated 2015):

Test system: PC3 cells
Assay: NAMPT Cell Proliferation Assay
Type: cell-based
Conditions: Homo sapiens, PC-3, 120 h, 5 days incubation, cell viability by Cell Titer Glo
Protocol: NAMPT Cell Proliferation Assay
PC3 cells were seeded in 96-well black plates (Corning #3904) at 500 cells/well in 90 μl of RPMI media containing 10% heat-inactivated FBS and incubated overnight at 37° C. and 5% CO2 to allow cells to attach to wells. The following day, test compounds were serially diluted in neat DMSO to 1000× final concentrations prior to dilution with RPMI media to 10× and 1% DMSO. Ten μL of the 10× compounds were then transferred to wells containing cells to produce a dose response of 10-fold dilutions from 10 μM to 1×10^−5 μM. Cells were incubated for 5 days at 37° C. and 5% CO2, then cell viability was measured using Cell Titer Glo reagent (Promega #G7571). Percent inhibition values were calculated and fitted to a sigmoidal dose response curves using Assay Explorer software to determine IC50s.

| Structure (SMILES) | IC50 |
| --- | --- |
| O=C(NCc1cn2ccnc2cn1)c1ccc(C2CCN(C(=O)C3CCOCC3)CC2)s1 [Example 841, N-(imidazo[1,2-a]pyrazin-6-ylmethyl)-5-[1-(tetrahydro-2H-pyran-4-ylcarbonyl)piperidin-4-yl]thiophene-2-carboxamide] | 6.13 nM |
| CC(C)C(=O)N1CCC(c2ccc(C(=O)NCc3ccc4ncnn4c3)s2)CC1 [Example 842, 5-[1-(2-methylpropanoyl)piperidin-4-yl]-N-([1,2,4]triazolo[1,5-a]pyridin-6-ylmethyl)thiophene-2-carboxamide] | 71.4 nM |
| CC(C)CC(=O)N1CCC(c2ccc(C(=O)NCc3ccc4ncnn4c3)s2)CC1 [Example 843, 5-[1-(3-methylbutanoyl)piperidin-4-yl]-N-([1,2,4]triazolo[1,5-a]pyridin-6-ylmethyl)thiophene-2-carboxamide] | 17.2 nM |
| CC[C@H](C)C(=O)N1CCC(c2ccc(C(=O)NCc3ccc4ncnn4c3)s2)CC1 [Example 844, 5-{1-[(2S)-2-methylbutanoyl]piperidin-4-yl}-N-([1,2,4]triazolo[1,5-a]pyridin-6-ylmethyl)thiophene-2-carboxamide] | 14.8 nM |
| CC1(C(=O)N2CCC(c3ccc(C(=O)NCc4ccc5ncnn5c4)s3)CC2)CC1 [Example 845, 5-{1-[(1-methylcyclopropyl)carbonyl]piperidin-4-yl}-N-([1,2,4]triazolo[1,5-a]pyridin-6-ylmethyl)thiophene-2-carboxamide] | 3.89 nM |
| O=C(NCc1ccc2ncnn2c1)c1ccc(C2CCN(C(=O)CC(F)(F)F)CC2)s1 [Example 846, N-([1,2,4]triazolo[1,5-a]pyridin-6-ylmethyl)-5-[1-(3,3,3-trifluoropropanoyl)piperidin-4-yl]thiophene-2-carboxamide] | 74.4 nM |
| O=C(NCc1ccc2ncnn2c1)c1ccc(C2CCN(C(=O)CCC(F)(F)F)CC2)s1 [Example 847, N-([1,2,4]triazolo[1,5-a]pyridin-6-ylmethyl)-5-[1-(4,4,4-trifluorobutanoyl)piperidin-4-yl]thiophene-2-carboxamide] | 93.6 nM |
| O=C(NCc1ccc2ncnn2c1)c1ccc(C2CCN(C(=O)C3CCC(F)(F)CC3)CC2)s1 [Example 848, 5-{1-[(4,4-difluorocyclohexyl)carbonyl]piperidin-4-yl}-N-([1,2,4]triazolo[1,5-a]pyridin-6-ylmethyl)thiophene-2-carboxamide] | 29.2 nM |
| O=C(NCc1ccc2ncnn2c1)c1ccc(C2CCN(C(=O)C3CCOCC3)CC2)s1 [Example 849, 5-[1-(tetrahydro-2H-pyran-4-ylcarbonyl)piperidin-4-yl]-N-([1,2,4]triazolo[1,5-a]pyridin-6-ylmethyl)thiophene-2-carboxamide] | 63.6 nM |
| CC(C)(O)C(=O)N1CCC(c2ccc(C(=O)NCc3ccc4ncnn4c3)s2)CC1 [Example 850, 5-[1-(2-hydroxy-2-methylpropanoyl)piperidin-4-yl]-N-([1,2,4]triazolo[1,5-a]pyridin-6-ylmethyl)thiophene-2-carboxamide] | 54 nM |
| CN1CCC(C(=O)N2CCC(c3ccc(C(=O)NCc4ccc5ncnn5c4)s3)CC2)CC1 [Example 851, 5-{1-[(1-methylpiperidin-4-yl)carbonyl]piperidin-4-yl}-N-([1,2,4]triazolo[1,5-a]pyridin-6-ylmethyl)thiophene-2-carboxamide] | 133 nM |
| N#Cc1ccccc1C(=O)N1CCC(c2ccc(C(=O)NCc3ccc4ncnn4c3)s2)CC1 [Example 852, 5-[1-(2-cyanobenzoyl)piperidin-4-yl]-N-([1,2,4]triazolo[1,5-a]pyridin-6-ylmethyl)thiophene-2-carboxamide] | 8.32 nM |
| O=C(NCc1ccc2ncnn2c1)c1ccc(C2CCN(C(=O)c3ccccn3)CC2)s1 [Example 853, 5-[1-(pyridin-2-ylcarbonyl)piperidin-4-yl]-N-([1,2,4]triazolo[1,5-a]pyridin-6-ylmethyl)thiophene-2-carboxamide] | 9.96 nM |
| O=C(Cc1ccc2nccn2c1)Nc1ccc(NC(=O)CC2CCCC2)cc1 [Example 854, 2-cyclopentyl-N-{4-[(imidazo[1,2-a]pyridin-6-ylacetyl)amino]phenyl}acetamide] | 0.414 nM |
| CC(C)(C)OC(=O)N1CCC(c2ccc(C(=O)NCc3ccc4nccn4n3)cc2)CC1 [Example 855, tert-butyl 4-{4-[(imidazo[1,2-b]pyridazin-6-ylmethyl)carbamoyl]phenyl}piperidine-1-carboxylate] | 111 nM |
| O=C(CC1CCCC1)Nc1ccc(C(=O)NCc2ccc3nccn3n2)cc1 [Example 856, 4-[(cyclopentylacetyl)amino]-N-(imidazo[1,2-b]pyridazin-6-ylmethyl)benzamide] | 657 nM |
| O=C(NCc1ccn2ccnc2c1)c1ccc(-c2cc(C3CC3)nn2Cc2ccccc2)s1 [Example 857, 5-(1-benzyl-3-cyclopropyl-1H-pyrazol-5-yl)-N-(imidazo[1,2-a]pyridin-7-ylmethyl)thiophene-2-carboxamide] | 1.55 nM |
| CC(C)(C)Cn1cc(-c2ccc(C(=O)NCc3cn4ccnc4cn3)s2)cn1 [Example 858, 5-[1-(2,2-dimethylpropyl)-1H-pyrazol-4-yl]-N-(imidazo[1,2-a]pyrazin-6-ylmethyl)thiophene-2-carboxamide] | 0.59 nM |

| Structure (SMILES) | IC50 |
| --- | --- |
| CC(C)S(=O)(=O)N1CCC(c2ccc(C(=O)NCc3ccc4ncnn4c3)s2)CC1 [Example 859, 5-[1-(propan-2-ylsulfonyl)piperidin-4-yl]-N-([1,2,4]triazolo[1,5-a]pyridin-6-ylmethyl)thiophene-2-carboxamide] | 10.4 nM |
| O=C(NCc1ccc2ncnn2c1)c1ccc(C2CCN(S(=O)(=O)c3ccccc3)CC2)s1 [Example 860, 5-[1-(phenylsulfonyl)piperidin-4-yl]-N-([1,2,4]triazolo[1,5-a]pyridin-6-ylmethyl)thiophene-2-carboxamide] | 8.24 nM |
| CC1(Cn2cc(-c3ccc(C(=O)NCc4cn5ccnc5cn4)s3)cn2)CCOCC1 [Example 861, N-(imidazo[1,2-a]pyrazin-6-ylmethyl)-5-{1-[(4-methyltetrahydro-2H-pyran-4-yl)methyl]-1H-pyrazol-4-yl}thiophene-2-carboxamide] | 0.574 nM |
| CC(C)(C)OC(=O)N1CCC(c2ccc(NC(=O)Cc3ccc4nccn4c3)cc2)CC1 [Example 862, tert-butyl 4-{4-[(imidazo[1,2-a]pyridin-6-ylacetyl)amino]phenyl}piperidine-1-carboxylate] | 0.78 nM |
| O=C(Cc1ccc2nccn2c1)Nc1ccc(C2CCN(C(=O)c3ccccc3F)CC2)cc1 [Example 863, N-{4-[1-(2-fluorobenzoyl)piperidin-4-yl]phenyl}-2-(imidazo[1,2-a]pyridin-6-yl)acetamide] | 0.642 nM |
| O=C(NCc1cn2ccnc2cn1)c1ccc(C2CCN(S(=O)(=O)c3ccccc3)CC2)cc1 [Example 864, N-(imidazo[1,2-a]pyrazin-6-ylmethyl)-4-[1-(phenylsulfonyl)piperidin-4-yl]benzamide] | 67.2 nM |
| CC(C)C(=O)N1CCC(c2ccc(NC(=O)Cc3ccc4nccn4c3)cc2)CC1 [Example 865, 2-(imidazo[1,2-a]pyridin-6-yl)-N-{4-[1-(2-methylpropanoyl)piperidin-4-yl]phenyl}acetamide] | 0.861 nM |
| O=C(Cc1ccc2nccn2c1)Nc1ccc(C2CCN(C(=O)c3ccc(F)cc3F)CC2)cc1 [Example 866, N-{4-[1-(2,4-difluorobenzoyl)piperidin-4-yl]phenyl}-2-(imidazo[1,2-a]pyridin-6-yl)acetamide] | 0.525 nM |
| COc1ccccc1CC(=O)Nc1ccc(C(=O)NCc2ccn3ccnc3c2)cc1 [Example 867, N-(imidazo[1,2-a]pyridin-7-ylmethyl)-4-{[(2-methoxyphenyl)acetyl]amino}benzamide] | 68.7 nM |
| O=C(Cc1ccccc1)Nc1ccc(C(=O)NCc2ccn3ccnc3c2)cc1 [Example 868, N-(imidazo[1,2-a]pyridin-7-ylmethyl)-4-[(phenylacetyl)amino]benzamide] | 86.9 nM |
| O=C(NCc1ccn2ccnc2c1)c1ccc(NC(=O)c2ccccc2)cc1 [Example 869, 4-(benzoylamino)-N-(imidazo[1,2-a]pyridin-7-ylmethyl)benzamide] | 6870 nM |
| O=C(NCc1ccn2ccnc2c1)c1ccc(NC(=O)c2cc(F)ccc2F)cc1 [Example 870, 2,5-difluoro-N-{4-[(imidazo[1,2-a]pyridin-7-ylmethyl)carbamoyl]phenyl}benzamide] | 994 nM |
| O=C(NCc1ccn2ccnc2c1)c1ccc(NC(=O)c2cc(F)cc(F)c2)cc1 [Example 871, 3,5-difluoro-N-{4-[(imidazo[1,2-a]pyridin-7-ylmethyl)carbamoyl]phenyl}benzamide] | 7300 nM |
| O=C(NCc1ccn2ccnc2c1)c1ccc(NC(=O)c2ccc(F)c(F)c2)cc1 [Example 872, 3,4-difluoro-N-{4-[(imidazo[1,2-a]pyridin-7-ylmethyl)carbamoyl]phenyl}benzamide] | > 10000 nM |
| O=C(NCc1ccn2ccnc2c1)c1ccc(NC(=O)c2ccc(F)cc2F)cc1 [Example 873, 2,4-difluoro-N-{4-[(imidazo[1,2-a]pyridin-7-ylmethyl)carbamoyl]phenyl}benzamide] | 3870 nM |
| O=C(NCc1ccn2ccnc2c1)c1ccc(NC(=O)c2ccccc2F)cc1 [Example 874, 2-fluoro-N-{4-[(imidazo[1,2-a]pyridin-7-ylmethyl)carbamoyl]phenyl}benzamide] | 6650 nM |
| COc1cccc(C(=O)Nc2ccc(C(=O)NCc3ccn4ccnc4c3)cc2)c1 [Example 875, N-{4-[(imidazo[1,2-a]pyridin-7-ylmethyl)carbamoyl]phenyl}-3-methoxybenzamide] | 1140 nM |
| O=C(Cc1ccccc1F)Nc1ccc(C(=O)NCc2ccn3ccnc3c2)cc1 [Example 876, 4-{[(2-fluorophenyl)acetyl]amino}-N-(imidazo[1,2-a]pyridin-7-ylmethyl)benzamide] | 47.7 nM |
